The values below come from patent US20060057101A1, “German cockroach attractant” (priority 2004, published 2006).

Assay [1] concerns male German cockroaches. Nature of the assay: two-choice olfactometer behavioral assay. The class given is in vivo, Blattella germanica. How it is done:
FIG. 3 is a graphic representation of behavioral responses of male German cockroaches to one female equivalent of a crude extract of many virgin females and to various doses of the synthetic pheromone, gentisyl quinone isovalerate. The pheromone was applied in 20 μl of methylene chloride to a filter paper disc and presented to single males acclimated in the two-choice olfactometer vs. a methylene chloride control filter paper. Behavioral response is defined as quiescent males that were activated and ran out of their cage. Each assay consisted of testing 10-16 males in individual olfactometers and the assays were replicated 3-18 times. The mean responses and SEM are indicated.
FIG. 4 is a graphic representation of behavioral responses of male German cockroaches to one female equivalent of a crude extract of many virgin females and to various doses of the synthetic pheromone, gentisyl quinone isovalerate. Procedures are as in FIG. 3, but reported is the latency in seconds before males left their cages.
The biological activity of extracts and fractions was assayed both behaviorally and with an electroantennogram (“EAG”). Schal et al., “Site of Pheromone Production in Female Supella longipalpa (F.) (Dictyoptera: Blattellidae): Behavioral, Electrophysiological, and Morphological Evidence,” Annals Entomol. Soc. Amer. 85:605-611 (1992), which is hereby incorporated by reference in its entirety. For behavioral assays a two-choice olfactometer was used. Liang et al., “Effects of Pheromone Concentration and Photoperiod on the Behavioral Response Sequence to Sex Pheromone in the Male Brown-Banded Cockroach, Supella longipalpa,” J. Insect Behavior 3:211-223 (1990), and Liang et al., “Volatile Sex Pheromone in the Female German Cockroach,” Experientia 49:324-328 (1993a), which are hereby incorporated by reference in their entirety. Briefly, a straight Plexiglas tube (55 cm long and 3 cm ID) was divided along 15 cm of its upwind end and air was drawn through it at 20 cm/min. […] The percentage of insects running upwind and the latency, in seconds, before they responded were recorded.

Assay [2] relates to brownbanded cockroach males. The settings on record: cited from earlier work.

`CC(C)CC(=O)OCC1=CC(=O)C=CC1=O` [synthetic pheromone, gentisyl quinone isovalerate]: the “males responding (quiescent males activated and running out of their cage)” value in assay [1] (10-100 ng of the pheromone on filter paper, FIG. 3) was “More than 60%”. Also, the “latency of the male response before leaving cage” value in assay [1] (doses between 10 ng and 1 μg, FIG. 4) is reported as “shortest latency”. For the same compound, the “dose-response of male behavioral response” value in assay [1] (various doses on filter paper, FIG. 3) is on record as “clear dose-response”.

As for supellapyrone, the “increase in number of adult males trapped relative to respective controls” value in assay [2] (all treatments, field traps) was 6-28 times. In addition, the “attractiveness to males in the field” value in assay [2] (field, jar traps) is given as “highly attractive”.
